Measurements published in US8841317B2 (Emory University, priority 2010, dated 2014).
Entries after “also recorded” stand apart in the source; their conditions may differ. Where two headings read alike, the source gives them in different places.

Columns and labels:
[1] = tested on: RAW 264.7 murine macrophages; assay: Nitric oxide release from TLR ligand-stimulated murine macrophages (Griess method); assay type: cell-based; settings: TLR ligands LPS or Pam3CSK4
Procedure: (§1) TLR ligand concentrations ranging from (LPS: 10-0.31 picomolar (pM) and Pam3CSK4: 10-0.31 μg/ml) and non-TLR ligands (mouse IP-10 and TNFα: 1000-31 pg/ml) were made in duplicate wells using sterile PBS by serial fold dilutions in the 96-well tissue culture plates at 50 μl final volumes. Freshly grown THP-1cells, RAW264.7, ScCr, HEK-TLR2/6 and HEK-TLR4-MD2-CD14 transfected cells each adjusted to 10^6 cell/ml and 250 μl aliquots were dispensed into each well at a final cell density of 250×10^3 in the designated 96-well plates. The plates were then incubated overnight at 37° C. with 5% CO2 and humidity. Supernatants from stimulated cells were harvested and stored at −20° C. until further use.
(§2) Freshly grown adherent RAW 246.7 or 23ScCr (TLR4-deficient) macrophages were scraped by a cell scraper. Harvested cells were washed and re-suspended in Dulbecco's complete media, counted and adjusted to 10^6 cell/ml. […] aliquots were then dispensed into each well at final 250×10^3 cell density in the designated 96-well plates prior to stimulation with TLR ligands or recombinant cytokines as mentioned above. […] Nitric oxide release was quantified using the Griess chemical method as previously described [Zughaier S M, Tzeng Y L, Zimmer S M, Datta A, Carlson R W, et al. (2004) Neisseria meningitidis lipooligosaccharide structure-dependent activation of the macrophage CD14/Toll-like receptor 4 pathway. […]

[2] = tested on: human or murine macrophages; assay: Cellular viability (trypan blue exclusion, morphology, LDH); assay type: cell-based, human and murine
Procedure: (§3) Biochim Biophys Acta 887: 13-22.]. […] Cellular aliquots (100 μl) were taken daily and cells were diluted 1:1 with the vital dye trypan blue 0.4% solution (Cellgro, Mediatech Inc, Herndon, Va.) in PBS and viable cells were counted. LDH release into the supernatant was also measured to assess the toxicity of the drugs. […] Cell Microbiol 7: 1251-1262.].

[3] = doses as high as 300 mg/kg; cited from earlier work
THP-1 human macrophages = assay: TNFα release from TLR ligand-stimulated human macrophages (ELISA); assay type: cell-based; settings: human and murine macrophages; TLR ligands LPS or Pam3CSK4
Procedure: as §1
(§4) Released cytokines TNFα and IL-6 and chemokines CXCL10 (IP-10), MIP-2α and IL-8 were quantified by DuoSet ELISA (R&D Systems, Minneapolis, Minn.) following the manufacturer's instructions as previously described [Zughaier S M, Zimmer S M, Datta A, Carlson R W, Stephens D S (2005) Differential induction of the toll-like receptor 4-MyD88-dependent and -independent signaling pathways by endotoxins. Infect Immun 73: 2940-2950.].

THP-1 cells [4] = assay: LDH release into supernatant; assay type: cell-based, human; settings: THP-1 cells incubated 48 hr with 50 μM; DMSO control 5 IU/L
Procedure: as §3

[5] = tested on: HEK293 cells transfected with TLR2 alone or TLR2/6 receptors; assay: Pam3CSK4-induced IL-8 release (ELISA); assay type: cell-based, human; settings: no drug = 1400 pg/ml
Procedure: as §1, §4

[6] = tested on: human macrophage cells THP-1; assay: Autophagy by electron microscopy; assay type: cell-based; settings: overnight, LPS 2 pM plus drug 50 μM
Procedure: Human macrophage cells were fixed for 1 hr with 2% glutaraldehyde in 0.1M sodium cacodylate buffer, rinsed in the same buffer and the post-fixed with 2% osmium tetroxide in the same buffer for 1 hr at room temperature. The samples were then dehydrated with a graded ethanol series through 3×100%, 2× in propylene oxide and embedded in Spurr's resin. Sections were stained with 1% uranyl acetate and lead citrate. Electron microscopy imaging was then performed at a magnification of 3597×.

THP-1 cells [7] = assay: Detection of acidic vesicular organelles (acridine orange); assay type: cell-based, human; settings: 24 hr treatment, acridine orange 1 μg/ml
Procedure: THP-1 cells were plated on cover slips and allowed to attach. Following treatments for 24 hr with DMSO alone (control), Red-Br-nos, LPS, Red-Br-nos and LPS, cells were stained with 1 μg/ml acridine orange for 15 min, washed with PBS, and examined under a Zeiss fluorescence microscope using a 40× objective lens [Herman-Antosiewicz A, Johnson D E, Singh S V (2006) Sulforaphane causes autophagy to inhibit release of cytochrome C and apoptosis in human prostate cancer cells. Cancer Res 66: 5828-5835.].

[8] = tested on: ScCr (TLR4-deficient) cells; assay: Sterile inflammation: nitric oxide release after murine TNFα stimulation; assay type: cell-based; settings: 50 μM for 1 hr or overnight, then murine TNFα 1000-31.2 pg/ml
Procedure: as §1, §2

[9] = tested on: RAW264 (TLR4-sufficient) cells; assay: Sterile inflammation: nitric oxide release after murine IP-10 (CXCL10) stimulation; assay type: cell-based; settings: 50 μM for 1 hr or overnight, then murine IP-10 1000-31.2 pg/ml
Procedure: as §1, §2

THP-1 macrophages = assay: Respiratory burst ROS release (lucigenin chemiluminescence); assay type: cell-based, human
Procedure: The enhanced chemiluminescence method was used as previously described [Zughaier S M, Ryley H C, Jackson S K (1999) A melanin pigment purified from an epidemic strain of Burkholderia cepacia attenuates monocyte respiratory burst activity by scavenging superoxide anion. Infect Immun 67: 908-913.]. Briefly, freshly grown THP-1 cells were adjusted to 2×10^6/ml, transferred to two large tissue culture flasks labeled as primed or unstimulated. Two pmole/ml LPS were added to prime cells or left unstimulated as control cells. Both flasks were incubated overnight at 37° C. under 5% CO2. […] The cells were collected in universal tubes, washed twice with culture medium and resuspended in standard buffer (4.58 mM KH2PO4, 8.03 mM NaHPO4, 0.5 mM MgCl2, 0.45 mM CaCl2, 1% (w/v) glucose, 0.033% (w/v) KCl, 0.76% (w/v) NaCl and 0.1% (w/v) endotoxin-free bovine serum albumin (pH 7.3) at 2×10^6/ml. The chemiluminescence probe lucigenin (Sigma) was added to the cell suspension (25 μl/ml of cells from 1.0 mM stock solution) and mixed gently. Aliquots (150 μl) of the cellular mixture were transferred into at least quadruplicate wells of a white 96-well plate (FluoroNunc-PolySorp; Nalge Nunc International, Rochester, N.Y.). The respiratory burst was triggered with 50 μl of PMA (1 μM). Chemiluminescence was measured in relative light units (a measure of the number of photons generated by the reaction at each time point). Chemiluminescence was measured using a luminometer (ML3000, Dynatech Laboratories Inc. Chantilly, Va.) and the plate was read immediately and then at 2 min intervals for the next 90 min [Zughaier S M, Ryley H C, Jackson S K (1999) A melanin pigment purified from an epidemic strain of Burkholderia cepacia attenuates monocyte respiratory burst activity by scavenging superoxide anion. Infect Immun 67: 908-9131.

For `COc1ccc2c(c1OC)C(=O)O[C@@H]2[C@H]1c2c(c(Br)c3c(c2OC)OCO3)CCN1C` [Br-nos, (S)-3-((R)-9-bromo-4-methoxy-6-methyl-5,6,7,8-tetrahydro-[1,3]dioxolo[4,5-g]isoquinolin-5-yl)-6,7-dimethoxyiso-benzofuran-1(3H)-one], the “TLR-mediated nitric oxide (NO) release” value [1] is given as “dampened”, the “cellular toxicity / viability” value ([2]; human and murine macrophages) is given as “without evidence of cellular toxicity” and the toxicity [3] is given as “non-toxic”. For the same compound, the “TLR-mediated TNFα release” value (THP-1 human macrophages) was “dampened”, the LDH release (THP-1 cells [4]) was 8 IU/L and the IL-8 release [5] was 650 pg/mL.
In the case of `COc1ccc2c(c1OC)CO[C@@H]2[C@H]1c2c(c(Br)c3c(c2OC)OCO3)CCN1C` [Red-Br-nos, (R)-9-bromo-5-((S)-4,5-dimethoxy-1,3-dihydroisobenzofuran-1-yl)-4-methoxy-6-methyl-5,6,7,8-tetrahydro-[1,3]di-oxolo-[4,5-g]isoquinoline], the “TLR-mediated nitric oxide (NO) release” value [1] is listed as “dampened”, the “cellular toxicity / viability” value [2] is listed as “without evidence of cellular toxicity” and the toxicity [3] is listed as “non-toxic”. The “TLR-mediated TNFα release” value (THP-1 human macrophages) was “dampened”, the “autophagy-related vacuolation (electron micrographs)” value [6] was “increased vacuolation in the cytoplasm” and the LDH release (THP-1 cells [4]) was 10 IU/L. The IL-8 release [5] was 400 pg/mL and the “acidic vesicular organelles (AVOs)” value (THP-1 cells [7]) was “confirmed the drug-induced autophagic activity; also recorded: formation (red fluorescence) of acridine orange-accumulating acidic vesicular organelles (AVOs)”.
With `COc1ccc2c(c1OC)C(=O)O[C@@H]2[C@H]1c2c(cc3c(c2OC)OCO3)CCN1C` [noscapine, (S)-6,7-dimethoxy-3-((R)-4-methoxy-6-methyl-5,6,7,8-tetrahydro[1,3]-dioxolo-[4,5-g]isoquinolin-5-yl)isobenzo-furan-1(3H)-one] the “nitric oxide release versus no drug” value [8] was “not significant”, the “cellular toxicity / viability” value ([2]; human and murine macrophages) was “did not induce inflammatory responses or impair cellular viability” and the LDH release (THP-1 cells [4]) was 7 IU/L. For the same compound, the “nitric oxide release versus no drug” value [9] was “not significant”, the “ROS release, LPS primed cells” value (THP-1 macrophages; 50 μM added just prior to PMA-triggered respiratory burst) was “enhanced ROS release” and the “ROS release, unprimed macrophages” value (THP-1 macrophages; 50 μM added just prior to respiratory burst) was “not in unprimed macrophages”. The “ROS release, primed macrophages” value (THP-1 macrophages; added 2 hr prior to triggering the respiratory burst) was “no change in ROS release”.
